# Columns and labels:
# CYP2C9 = target: T1, CYP2C9 (Homo sapiens, UniProt P11712); assay: CYP inhibition assay; type: in vitro ADME; conditions: human, human liver microsomes, pH 7.4, probe Diclofenac 10 μM (in a cocktail of five substrates); inhibitor 0.1 μM; read-out: Percentage of enzyme remaining after inhibition, CYP2C9
# T1 construct: Human liver microsomes (0.25 mg/mL); from tissue; host or cells: human liver microsomes
# Protocol: (§1) Human liver microsomes (0.25 mg/mL), 0.1 M phosphate buffer (pH 7.4), a cocktail of five […] substrates (Phenacetin 50 μM, Diclofenac 10 μM, S-mephenytoin 100 μM, Dextromethorphan 5 μM, Midazolam 2.5 μM), and test compound (10 μM concentration) was pre-incubated for 5 min at 37 °C. NADPH generation system solution was added and incubated for 15 min at 37 °C. In order to terminate the reaction, acetonitrile solution containing an internal standard (Terfenadine) was added and centrifuged for 5 min (14,000× g […], 4 °C). The supernatant was injected into the LC-MS/MS system to analyze the metabolites of the substrates simultaneously. Metabolites of each substrate produced during the reaction were analyzed using the Shimadzu Nexera XR system and TSQ vantage (Thermo). Kinetex C18 column (2.1 × 100 mm, 2.6 μm particle size; Phenomenex, USA) was used for HPLC. The mobile phase used contained 0.1% formic acid in distilled water (A) and 0.1% formic acid containing acetonitrile (B). The generated metabolites were quantified using MRM (Multiple Reaction Monitoring) and Xcalibur (version 1.6.1) was used for data analysis.
# CYP2C19 = target: T2, CYP2C19 (Homo sapiens, UniProt P33261); assay: CYP inhibition assay; type: in vitro ADME; conditions: human, human liver microsomes, pH 7.4, probe S-mephenytoin 100 μM (in a cocktail of five substrates); inhibitor 0.1 μM; read-out: Percentage of enzyme remaining after inhibition, CYP2C19
# T2 construct: Human liver microsomes (0.25 mg/mL); from tissue; host or cells: human liver microsomes
# Protocol: as §1
# CYP1A2 = target: T3, CYP1A2 (Homo sapiens, UniProt P05177); assay: CYP inhibition assay; type: in vitro ADME; conditions: human, human liver microsomes, pH 7.4, probe Phenacetin 50 μM (in a cocktail of five substrates); inhibitor 0.1 μM; read-out: Percentage of enzyme remaining after inhibition, CYP1A2
# T3 construct: Human liver microsomes (0.25 mg/mL); from tissue; host or cells: human liver microsomes
# Protocol: as §1
# KM12 = assay: Antiproliferative activity against KM12; type: cell-based; conditions: Homo sapiens, colon cancer cell line highly expressing NTRK1/2/3 and DYRK3, read-out: IC50 cell growth of KM12
# ACHN = assay: Antiproliferative activity against ACHN; type: cell-based; conditions: Homo sapiens, renal cancer cell line expressing CK1δ and DYRK2, read-out: IC50 cell growth of ACHN
# T2 sequence (P33261 whole entry): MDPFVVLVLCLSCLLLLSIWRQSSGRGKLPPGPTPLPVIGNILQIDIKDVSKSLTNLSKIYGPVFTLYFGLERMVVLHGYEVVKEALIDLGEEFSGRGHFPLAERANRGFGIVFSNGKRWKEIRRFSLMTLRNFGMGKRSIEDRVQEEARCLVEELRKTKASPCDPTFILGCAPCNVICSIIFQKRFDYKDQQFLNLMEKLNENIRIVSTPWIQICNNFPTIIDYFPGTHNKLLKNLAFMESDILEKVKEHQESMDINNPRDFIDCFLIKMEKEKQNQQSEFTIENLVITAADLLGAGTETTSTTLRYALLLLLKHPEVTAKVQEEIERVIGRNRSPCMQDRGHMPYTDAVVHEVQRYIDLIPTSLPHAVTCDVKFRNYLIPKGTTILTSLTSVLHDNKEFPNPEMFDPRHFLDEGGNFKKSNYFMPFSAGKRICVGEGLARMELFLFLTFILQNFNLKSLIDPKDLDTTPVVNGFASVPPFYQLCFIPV
# T1 sequence (P11712 whole entry): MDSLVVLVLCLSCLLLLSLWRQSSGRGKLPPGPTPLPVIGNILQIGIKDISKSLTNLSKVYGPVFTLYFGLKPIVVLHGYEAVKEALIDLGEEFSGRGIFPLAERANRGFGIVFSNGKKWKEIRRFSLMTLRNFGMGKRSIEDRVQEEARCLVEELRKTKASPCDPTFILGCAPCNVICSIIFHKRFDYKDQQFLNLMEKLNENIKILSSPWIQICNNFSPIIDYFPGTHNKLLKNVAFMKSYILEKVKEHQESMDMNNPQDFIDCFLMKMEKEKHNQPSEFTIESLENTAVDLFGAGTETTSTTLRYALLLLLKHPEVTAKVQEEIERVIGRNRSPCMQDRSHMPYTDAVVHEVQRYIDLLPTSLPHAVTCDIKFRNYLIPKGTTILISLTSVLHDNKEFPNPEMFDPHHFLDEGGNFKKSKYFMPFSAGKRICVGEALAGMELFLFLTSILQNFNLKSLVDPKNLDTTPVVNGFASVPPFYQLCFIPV
# T3 sequence (P05177 whole entry): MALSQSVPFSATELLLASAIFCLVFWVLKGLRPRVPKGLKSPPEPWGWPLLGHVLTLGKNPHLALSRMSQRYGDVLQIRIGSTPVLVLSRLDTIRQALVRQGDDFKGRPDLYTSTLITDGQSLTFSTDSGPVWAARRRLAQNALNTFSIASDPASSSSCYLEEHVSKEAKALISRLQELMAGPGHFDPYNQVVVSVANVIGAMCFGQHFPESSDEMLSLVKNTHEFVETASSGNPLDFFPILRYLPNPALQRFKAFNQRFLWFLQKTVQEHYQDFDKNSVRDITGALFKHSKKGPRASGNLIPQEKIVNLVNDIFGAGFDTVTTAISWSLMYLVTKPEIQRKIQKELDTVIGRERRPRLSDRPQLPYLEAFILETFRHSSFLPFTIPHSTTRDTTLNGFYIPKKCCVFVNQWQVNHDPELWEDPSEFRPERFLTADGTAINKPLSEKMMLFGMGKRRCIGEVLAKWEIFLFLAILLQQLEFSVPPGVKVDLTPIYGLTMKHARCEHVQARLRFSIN
"remaining at 15 min, 0.1 μM (CYP2C9)","remaining at 15 min, 0.1 μM (CYP2C19)","remaining at 15 min, 0.1 μM (CYP1A2)",IC50 (ACHN),SMILES,IC50 (KM12)
93.6%,93.6%,95.7%,,"CC(=O)N1CCN(c2ccc(OCC3COC(Cn4ccnc4)(c4ccc(Cl)cc4Cl)O3)cc2)CC1 (centres unmarked) [Ketoconazole, reference compound]",
,,,40 nM,"COc1cccc2c1C(=O)c1c(O)c3c(c(O)c1C2=O)C[C@@](O)(C(=O)CO)C[C@@H]3O[C@H]1C[C@H](N)[C@H](O)[C@H](C)O1 [doxorubicin, reference compound]",120 nM

# Source: PMC8708872, “Discovery of a Novel Template, 7-Substituted 7-Deaza-4′-Thioadenosine Derivatives as Multi-Kinase Inhibitors” (Pharmaceuticals, 2021)
